Laboratory results as given in patent US20230085307A1, “PYRIDAZINONE COMPOUND AND HERBICIDE” (NISSAN CHEMICAL CORPORATION, priority 2019, published 2023).

Assays:
[1] = system: wild oat; experiment: Test Example 4: herbicidal effect by soil treatment (Table 19, symbol I); type: in vivo, wild oat (Avena fatua); details: amount of applied herbicide 320 g/ha
In short: (§1)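 Step 1: sow seeds in sterilized diluvial soil, cover ~1.5 cm. Step 2: spray diluted emulsion onto soil surface at predetermined rate. Step 3: greenhouse, 25–30° C, three weeks. Step 4: grade effect on each plant by earlier criteria.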

[2] = system: green foxtail; experiment: Test Example 4: herbicidal effect by soil treatment (Table 19, symbol G); type: in vivo, green foxtail (Setaria viridis); details: amount of applied herbicide 320 g/ha
In short: as §1

[3] = system: oval-leafed pondweed; experiment: Test Example 1: herbicidal activity, application before weed generation under submerged conditions (Table 16, symbol C); type: in vivo, oval-leafed pondweed (Monochoria vaginalis); details: amount of applied herbicide 320 g/ha
In short: (§2)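 Emulsion formulation, water-diluted to set dose, was put onto the flooded surface (4 cm depth, alluvial soil) the same day weeds were sown and 2.5-leaf rice transplanted. After 3 weeks at 25-30 °C under glass, each species was rated 0 (≤5% kill) to 5 (≥90% kill).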

[4] = system: chickweed; experiment: Test Example 5: herbicidal effect by foliage application, plastic box (Table 20, symbol P); type: in vivo, common chickweed (Stellaria media); details: 320 g/ha, foliage application after 14-day growth, evaluated three weeks after application
In short: (§3)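 Foliar spray test: emulsion formulation diluted in water to a set application rate, sprayed onto 14-day-old plants raised in diluvial soil at 25° C to 30° C under glass. Both herbicidal effect and crop effect rated visually three weeks later.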

[5] = system: rice flat sedge; experiment: Test Example 3: herbicidal effect by foliage application, Wagner pot (Table 18, symbol E); type: in vivo, rice flat sedge (Cyperus iria); details: 320 g/ha
In short: (§4)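 Plants were sown in alluvial soil held under 0.1–0.5 cm standing water and grown 14 days in a greenhouse at 25–30 °C. An emulsifiable formulation, water-diluted to the set dose, was then sprayed onto the foliage, and effects were scored three weeks later using previously defined criteria.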

[6] = system: persian speedwell; experiment: Test Example 5: herbicidal effect by foliage application, plastic box (Table 20, symbol R); type: in vivo, Persian speedwell (Veronica persica); details: 320 g/ha, foliage application after 14-day growth, evaluated three weeks after application
In short: as §3

[7] = system: velvetleaf; experiment: Test Example 5: herbicidal effect by foliage application, plastic box (Table 20, symbol M); type: in vivo, velvetleaf (Abutilon theophrasti); details: 320 g/ha, foliage application after 14-day growth, evaluated three weeks after application
In short: as §3

[8] = system: Italian ryegrass; experiment: Test Example 5: herbicidal effect by foliage application, plastic box (Table 20, symbol K); type: in vivo, Italian ryegrass (Lolium multiflorum); details: 320 g/ha, foliage application after 14-day growth, evaluated three weeks after application
In short: as §3

[9] = system: blackgrass; experiment: Test Example 4: herbicidal effect by soil treatment (Table 19, symbol J); type: in vivo, blackgrass (Alopecurus myosuroides); details: amount of applied herbicide 320 g/ha
In short: as §1

[10] = system: southern crabgrass; experiment: Test Example 4: herbicidal effect by soil treatment (Table 19, symbol F); type: in vivo, southern crabgrass (Digitaria ciliaris); details: amount of applied herbicide 320 g/ha
In short: as §1

[11] = system: windgrass; experiment: Test Example 4: herbicidal effect by soil treatment (Table 19, symbol L); type: in vivo, windgrass (Apera spica-venti); details: amount of applied herbicide 320 g/ha
In short: as §1

[12] = system: barnyard grass; experiment: Test Example 3: herbicidal effect by foliage application, Wagner pot (Table 18, symbol H); type: in vivo, barnyard grass (Echinochloa crus-galli); details: 320 g/ha
In short: as §4

[13] = system: green foxtail; experiment: Test Example 5: herbicidal effect by foliage application, plastic box (Table 20, symbol G); type: in vivo, green foxtail (Setaria viridis); details: 320 g/ha, foliage application after 14-day growth, evaluated three weeks after application
In short: as §3

[14] = system: windgrass; experiment: Test Example 5: herbicidal effect by foliage application, plastic box (Table 20, symbol L); type: in vivo, windgrass (Apera spica-venti); details: 320 g/ha, foliage application after 14-day growth, evaluated three weeks after application
In short: as §3

[15] = system: blackgrass; experiment: Test Example 5: herbicidal effect by foliage application, plastic box (Table 20, symbol J); type: in vivo, blackgrass (Alopecurus myosuroides); details: 320 g/ha, foliage application after 14-day growth, evaluated three weeks after application
In short: as §3

[16] = system: redroot pigweed; experiment: Test Example 4: herbicidal effect by soil treatment (Table 19, symbol N); type: in vivo, redroot pigweed (Amaranthus retroflexus); details: amount of applied herbicide 320 g/ha
In short: as §1

[17] = system: redroot pigweed; experiment: Test Example 5: herbicidal effect by foliage application, plastic box (Table 20, symbol N); type: in vivo, redroot pigweed (Amaranthus retroflexus); details: 320 g/ha, foliage application after 14-day growth, evaluated three weeks after application
In short: as §3

[18] = system: lambsquarters; experiment: Test Example 5: herbicidal effect by foliage application, plastic box (Table 20, symbol O); type: in vivo, lambsquarters (Chenopodium album); details: 320 g/ha, foliage application after 14-day growth, evaluated three weeks after application
In short: as §3

[19] = system: southern crabgrass; experiment: Test Example 5: herbicidal effect by foliage application, plastic box (Table 20, symbol F); type: in vivo, southern crabgrass (Digitaria ciliaris); details: 320 g/ha, foliage application after 14-day growth, evaluated three weeks after application
In short: as §3

[20] = system: barnyard grass; experiment: Test Example 5: herbicidal effect by foliage application, plastic box (Table 20, symbol H); type: in vivo, barnyard grass (Echinochloa crus-galli); details: 320 g/ha, foliage application after 14-day growth, evaluated three weeks after application
In short: as §3

[21] = system: persian speedwell; experiment: Test Example 4: herbicidal effect by soil treatment (Table 19, symbol R); type: in vivo, Persian speedwell (Veronica persica); details: amount of applied herbicide 320 g/ha
In short: as §1

[22] = system: Italian ryegrass; experiment: Test Example 4: herbicidal effect by soil treatment (Table 19, symbol K); type: in vivo, Italian ryegrass (Lolium multiflorum); details: amount of applied herbicide 320 g/ha
In short: as §1

[23] = system: chickweed; experiment: Test Example 4: herbicidal effect by soil treatment (Table 19, symbol P); type: in vivo, common chickweed (Stellaria media); details: amount of applied herbicide 320 g/ha
In short: as §1

[24] = system: wild oat; experiment: Test Example 5: herbicidal effect by foliage application, plastic box (Table 20, symbol I); type: in vivo, wild oat (Avena fatua); details: 320 g/ha, foliage application after 14-day growth, evaluated three weeks after application
In short: as §3

[25] = system: lambsquarters; experiment: Test Example 4: herbicidal effect by soil treatment (Table 19, symbol O); type: in vivo, lambsquarters (Chenopodium album); details: amount of applied herbicide 320 g/ha
In short: as §1

[26] = system: Chinese sprangletop; experiment: Test Example 3: herbicidal effect by foliage application, Wagner pot (Table 18, symbol D); type: in vivo, chinese sprangletop (Leptochloa chinensis); details: 320 g/ha
In short: as §4

[27] = system: velvetleaf; experiment: Test Example 4: herbicidal effect by soil treatment (Table 19, symbol M); type: in vivo, velvetleaf (Abutilon theophrasti); details: amount of applied herbicide 320 g/ha
In short: as §1

[28] = system: barnyard grass; experiment: Test Example 4: herbicidal effect by soil treatment (Table 19, symbol H); type: in vivo, barnyard grass (Echinochloa crus-galli); details: amount of applied herbicide 320 g/ha
In short: as §1

[29] = system: late watergrass; experiment: Test Example 1: herbicidal activity, application before weed generation under submerged conditions (Table 16, symbol A); type: in vivo, late watergrass (Echinochloa oryzicola); details: amount of applied herbicide 320 g/ha
In short: as §2

[30] = system: Japanese bulrush; experiment: Test Example 1: herbicidal activity, application before weed generation under submerged conditions (Table 16, symbol B); type: in vivo, Japanese bulrush (Schoenoplectus juncoides); details: amount of applied herbicide 320 g/ha
In short: as §2

SMILES	Herbicidal effect by soil treatment, I: wild oat [1]	Herbicidal effect by soil treatment, G: green foxtail [2]	Herbicidal effect, C: oval-leafed pondweed [3]	herbicidal effect on P: chickweed (evaluation grade 0-5) [4]	herbicidal effect on rice flat sedge (E) [5]	herbicidal effect on R: persian speedwell (evaluation grade 0-5) [6]	herbicidal effect on M: velvetleaf (evaluation grade 0-5) [7]	herbicidal effect on K: Italian ryegrass (evaluation grade 0-5) [8]	Herbicidal effect by soil treatment, J: blackgrass [9]	Herbicidal effect by soil treatment, F: southern crabgrass [10]	Herbicidal effect by soil treatment, L: windgrass [11]	herbicidal effect on barnyard grass (H) [12]	herbicidal effect on G: green foxtail (evaluation grade 0-5) [13]	herbicidal effect on L: windgrass (evaluation grade 0-5) [14]	herbicidal effect on J: blackgrass (evaluation grade 0-5) [15]	Herbicidal effect by soil treatment, N: redroot pigweed [16]	herbicidal effect on N: redroot pigweed (evaluation grade 0-5) [17]	herbicidal effect on O: lambsquarters (evaluation grade 0-5) [18]	herbicidal effect on F: southern crabgrass (evaluation grade 0-5) [19]	herbicidal effect on H: barnyard grass (evaluation grade 0-5) [20]	further results
CCOc1ccccc1-c1sc2c(F)cccc2c1-c1c(O)c(C)nn(C)c1=O [4-007]	0 (Herbicidal rate of 5% or less (almost no effect))	0 (Herbicidal rate of 5% or less (almost no effect))	0 (Herbicidal rate of 5% or less (almost no effect))	5 (Herbicidal rate of 90% or more (almost completely withered))	5 (Herbicidal rate of 90% or more (almost completely withered))	5 (Herbicidal rate of 90% or more (almost completely withered))	3 (Herbicidal rate of 40% or more and less than 70%)	4 (Herbicidal rate of 70% or more and less than 90%)	3 (Herbicidal rate of 40% or more and less than 70%)	0 (Herbicidal rate of 5% or less (almost no effect))	0 (Herbicidal rate of 5% or less (almost no effect))	5 (Herbicidal rate of 90% or more (almost completely withered))	5 (Herbicidal rate of 90% or more (almost completely withered))	2 (Herbicidal rate of 20% or more and less than 40%)	4 (Herbicidal rate of 70% or more and less than 90%)	0 (Herbicidal rate of 5% or less (almost no effect))	3 (Herbicidal rate of 40% or more and less than 70%)	1 (Herbicidal rate of 5% or more and less than 20%)	3 (Herbicidal rate of 40% or more and less than 70%)	4 (Herbicidal rate of 70% or more and less than 90%)	Herbicidal effect by soil treatment, R: persian speedwell [21]: 3 (Herbicidal rate of 40% or more and less than 70%); Herbicidal effect by soil treatment, K: Italian ryegrass [22]: 0 (Herbicidal rate of 5% or less (almost no effect)); Herbicidal effect by soil treatment, P: chickweed [23]: 3 (Herbicidal rate of 40% or more and less than 70%); herbicidal effect on I: wild oat (evaluation grade 0-5) [24]: 2 (Herbicidal rate of 20% or more and less than 40%); Herbicidal effect by soil treatment, O: lambsquarters [25]: 0 (Herbicidal rate of 5% or less (almost no effect)); herbicidal effect on Chinese sprangletop (D) [26]: 3 (Herbicidal rate of 40% or more and less than 70%); Herbicidal effect by soil treatment, M: velvetleaf [27]: 0 (Herbicidal rate of 5% or less (almost no effect)); Herbicidal effect by soil treatment, H: barnyard grass [28]: 0 (Herbicidal rate of 5% or less (almost no effect)); Herbicidal effect, A: late watergrass [29]: 3 (Herbicidal rate of 40% or more and less than 70%); Herbicidal effect, B: Japanese bulrush [30]: 0 (Herbicidal rate of 5% or less (almost no effect))
CCCOc1ccc(-c2sc3c(F)cccc3c2-c2c(O)c(C)nn(C)c2=O)cc1 [4-009]	0 (Herbicidal rate of 5% or less (almost no effect))	0 (Herbicidal rate of 5% or less (almost no effect))	0 (Herbicidal rate of 5% or less (almost no effect))	5 (Herbicidal rate of 90% or more (almost completely withered))	5 (Herbicidal rate of 90% or more (almost completely withered))	5 (Herbicidal rate of 90% or more (almost completely withered))	3 (Herbicidal rate of 40% or more and less than 70%)	4 (Herbicidal rate of 70% or more and less than 90%)	0 (Herbicidal rate of 5% or less (almost no effect))	0 (Herbicidal rate of 5% or less (almost no effect))	0 (Herbicidal rate of 5% or less (almost no effect))	5 (Herbicidal rate of 90% or more (almost completely withered))	2 (Herbicidal rate of 20% or more and less than 40%)	4 (Herbicidal rate of 70% or more and less than 90%)	4 (Herbicidal rate of 70% or more and less than 90%)	5 (Herbicidal rate of 90% or more (almost completely withered))	5 (Herbicidal rate of 90% or more (almost completely withered))	4 (Herbicidal rate of 70% or more and less than 90%)	3 (Herbicidal rate of 40% or more and less than 70%)	5 (Herbicidal rate of 90% or more (almost completely withered))	Herbicidal effect by soil treatment, R: persian speedwell [21]: 4 (Herbicidal rate of 70% or more and less than 90%); Herbicidal effect by soil treatment, K: Italian ryegrass [22]: 0 (Herbicidal rate of 5% or less (almost no effect)); Herbicidal effect by soil treatment, P: chickweed [23]: 4 (Herbicidal rate of 70% or more and less than 90%); herbicidal effect on I: wild oat (evaluation grade 0-5) [24]: 0 (Herbicidal rate of 5% or less (almost no effect)); Herbicidal effect by soil treatment, O: lambsquarters [25]: 3 (Herbicidal rate of 40% or more and less than 70%); herbicidal effect on Chinese sprangletop (D) [26]: 3 (Herbicidal rate of 40% or more and less than 70%); Herbicidal effect by soil treatment, M: velvetleaf [27]: 0 (Herbicidal rate of 5% or less (almost no effect)); Herbicidal effect by soil treatment, H: barnyard grass [28]: 0 (Herbicidal rate of 5% or less (almost no effect)); Herbicidal effect, A: late watergrass [29]: 2 (Herbicidal rate of 20% or more and less than 40%); Herbicidal effect, B: Japanese bulrush [30]: 1 (Herbicidal rate of 5% or more and less than 20%)
